Test system: LoVo colorectal cancer cells
Experiment: in vitro growth / proliferation of LoVo colon cancer cells
Assay type: cell-based, human
Conditions: for antineoplastic activity of peaks and peak combinations: 450 uM, FIG. 14
Experimental: FIG. 2. […] The extracts were prepared with water, then dried and dissolved in methanol. Control contains no extract added and the methanol control is a control containing 5% methanol as was used to dissolve the dried aqueous extract. FIG. 3. Effects of ethyl acetate (a and b) and methanol (c and d) extracts at to concentration of 75 ug/ml on LoVo colorectal cancer cells (a and c) and we38 human fetal fibroblast cells (b and d). FIG. 4. […] An assay to test the biological activity of individual peaks was carried out using the same antineoplastic test already evaluated for the whole extract. The main purpose of these studies was to identify who are the peaks with the highest biological activity and to determine a synergistic effect among the different compounds.

Row | Structure (SMILES) | antineoplastic activity of peaks and peak combinations | concentration at which inhibitory effect of cellular proliferation was observed, converted (LoVo, corresponds to 1.7 mM) [µg/mL] | concentration at which inhibitory effect of cellular proliferation was observed (LoVo, tested at 0.017, 0.17 and 1.7 mM, FIG. 4) [mM]
1 | COc1cc(O)c2c(=O)cc(-c3ccc(O)c(O)c3)oc2c1C1OC(CO)C(O)C(O)C1OC1OCC(O)C(O)C1O (single isomer, unassigned; peak 2) [peak 2, isowertiajaponine (7-O-methyl orientin-2″-O-arabinopiranoside)] | only a weak antineoplastic activity | 1000 | 1.7
2 | O=c1cc(-c2ccc(O)c(O)c2)oc2c(C3OC(CO)C(O)C(O)C3OC3OCC(O)C(O)C3O)c(O)cc(O)c12 (single isomer, unassigned; peak 1) [peak 1, 2″-O-β-O arabinopyranoside orientin (orientin traces)] | only a weak antineoplastic activity | – | –

From US20110177178A1, “Extracts of Deschampsia antarctica Desv. with antineoplastic activity” (Uxmal S.A., Chile, priority 2007, published 2011)
